Data reported in US10053485B2, “Cytotoxic agents that preferentially target leukemia inhibitory factor (LIF) for the treatment of malignancies and as new contraceptive agents” (Evestra, Inc., priority 2015, dated 2018).

What was measured:
[1] = test system: T47D (ER+ PR+ Breast Cancer); test: Short term (72 h) cytotoxicity assay; format: cell-based; details: Homo sapiens
A549 (Lung cancer) = test: Short term (72 h) cytotoxicity assay; format: cell-based, human; details: Homo sapiens; A549, 72 h cytotoxicity
TK-10 = test: NCI-60 screen, Renal Cancer panel; format: cell-based; details: Homo sapiens, TK-10, 48 h
[2] = test system: PC3 (AR− Prostate Cancer); test: Short term (72 h) cytotoxicity assay; format: cell-based; details: Homo sapiens, PC3, 72 h cytotoxicity
SK-MEL-2 = test: NCI-60 screen, Melanoma panel; format: cell-based; details: Homo sapiens, SK-MEL-2, 48 h
786-0 = test: NCI-60 screen, Renal Cancer panel; format: cell-based; details: Homo sapiens, 786-0, 48 h
NCI-H332M = test: NCI-60 screen, Non-Small Cell Lung Cancer panel; format: cell-based; details: Homo sapiens, 48 h
ACHN = test: NCI-60 screen, Renal Cancer panel; format: cell-based; details: Homo sapiens, 48 h
HCT-15 = test: NCI-60 screen, Colon Cancer panel; format: cell-based; details: Homo sapiens, HCT-15, 48 h
SN12C = test: NCI-60 screen, Renal Cancer panel; format: cell-based; details: Homo sapiens, 48 h
OVCAR-3 = test: NCI-60 screen, Ovarian Cancer panel; format: cell-based; details: Homo sapiens, OVCAR-3, 48 h
Procedure: EC 330 was also tested using the NCI-60 Screening Methodology. The human tumor cell lines of the cancer screening panel are grown in RPMI 1640 medium containing 5% fetal bovine serum and 2 mM L-glutamine. For a typical screening experiment, cells are inoculated into 96 well microtiter plates in 100 μL at plating densities ranging from 5,000 to 40,000 cells/well depending on the doubling time of individual cell lines. After cell inoculation, the microtiter plates are incubated at 37° C., 5% CO2, 95% air and 100% relative humidity for 24 h prior to addition of experimental drugs. […]
Following drug addition, the plates are incubated for an additional 48 h at 37° C., 5% CO2, 95% air, and 100% relative humidity. […] Bound stain is subsequently solubilized with 10 mM trizma base, and the absorbance is read on an automated plate reader at a wavelength of 515 nm. […] Using the seven absorbance measurements [time zero, (Tz), control growth, (C), and test growth in the presence of drug at the five concentration levels (Ti)], the percentage growth is calculated at each of the drug concentrations levels. Percentage growth inhibition is calculated as: [(Ti−Tz)/(C−Tz)]×100 for concentrations for which Ti>/=Tz [(Ti−Tz)/Tz]×100 for concentrations for which Ti<Tz.
Three dose response parameters are calculated for each experimental agent. […]

NCI-H226 = test: NCI-60 screen, Non-Small Cell Lung Cancer panel; format: cell-based; details: Homo sapiens, NCI-H226, 48 h, read-out: GI50 (log10GI50) (converted)
U251 (Glioma) = test: Short term (72 h) cytotoxicity assay; format: cell-based, human; details: Homo sapiens, U-251; U251, 72 h cytotoxicity
SF-295 = test: NCI-60 screen, CNS Cancer panel; format: cell-based; details: Homo sapiens, SF-295, 48 h
A549/ATCC = test: NCI-60 screen, Non-Small Cell Lung Cancer panel; format: cell-based; details: Homo sapiens, A549, 48 h
SK-MEL-28 = test: NCI-60 screen, Melanoma panel; format: cell-based; details: Homo sapiens, SK-MEL-28, 48 h
HOP-92 = test: NCI-60 screen, Non-Small Cell Lung Cancer panel; format: cell-based; details: Homo sapiens, HOP-92, 48 h
[3] = read-out: GI50 (log10GI50) (converted)
[4] = read-out: LC50 (log10LC50) (converted)

C#CC(F)(F)[C@]1(O)CCC2C3CCC4=CC(=O)CCC4=C3C(c3ccc(C4CC4)cc3)C[C@@]21C (stereo partly drawn) [EC330, 17α-(1,1-difluoro-2-propyn-1-yl)-17β-hydroxy-11β-[4-p-(cyclopropyl)phenyl]estra-4,9-dien-3-one]
IC50 [1]: 80 nM | IC50 (A549 (Lung cancer)): 25 nM | GI50 (TK-10; [3]): 2630 nM | CC50 (TK-10; [4]): > 100000 nM | IC50 [2]: 30 nM | GI50 (SK-MEL-2; [3]): 2140 nM | CC50 (SK-MEL-2; [4]): 30200 nM | GI50 (786-0; [3]): < 10 nM | CC50 (786-0; [4]): < 10 nM | GI50 (NCI-H332M; [3]): 3800 nM | CC50 (NCI-H332M; [4]): > 100000 nM | GI50 (ACHN; [3]): 1510 nM | CC50 (ACHN; [4]): > 100000 nM | GI50 (HCT-15; [3]): 1480 nM | CC50 (HCT-15; [4]): > 100000 nM | GI50 (SN12C; [3]): 3800 nM | CC50 (SN12C; [4]): > 100000 nM | CC50 (OVCAR-3; [4]): 933 nM | GI50 (OVCAR-3; SRB, read-out: GI50 (log10GI50) (converted)): 12.9 nM | GI50 (NCI-H226): 2630 nM | IC50 (U251 (Glioma)): 20 nM | GI50 (SF-295; [3]): < 10 nM | CC50 (SF-295; [4]): < 10 nM | GI50 (A549/ATCC; [3]): 2450 nM | CC50 (A549/ATCC; [4]): > 100000 nM | GI50 (SK-MEL-28; [3]): 1780 nM | CC50 (SK-MEL-28; [4]): 7760 nM | GI50 (HOP-92; [3]): < 10 nM | CC50 (HOP-92; [4]): 19.1 nM
